# Results taken from ChEMBL document CHEMBL5608208, “Design, synthesis of griseofamine A derivatives and development of potent antibacterial agents against MRSA” (Eur J Med Chem, 2024).
# Calls of active or inactive are those of the source. The rule behind the calls is not given here.
# Assays:
# [1] = test system: Staphylococcus epidermidis; experiment: Antibacterial activity against Staphylococcus epidermidis ATCC 12228 incubated for 18 hrs by serial two-fold dilution method; format: functional
# Staphylococcus aureus [2] = experiment: Antibacterial activity against methicillin resistant Staphylococcus aureus ATCC 33592 incubated for 18 hrs by serial two-fold dilution method; format: functional
# Staphylococcus aureus [3] = experiment: Bactericidal activity against Staphylococcus aureus ATCC 29213 incubated for 18 to 24 hrs; format: functional; conditions: time 18-24 hrs
# Staphylococcus aureus [4] = experiment: Inhibition of biofilm formation in methicillin resistant Staphylococcus aureus ATCC 33592 assessed as decrease in biofilm survival rate incubated for 48 hrs by crystal violet staining based optical microscopic analysis; format: functional, organism-based
# [5] = test system: Staphylococcus epidermidis; experiment: Drug resistance development in Staphylococcus epidermidis ATCC 12228 assessed as increase in MIC value measured after 8 passages by broth microdilution method; format: functional
# [6] = test system: Staphylococcus epidermidis; experiment: Drug resistance development in Staphylococcus epidermidis ATCC 12228 assessed as increase in MIC value measured after 7 passages by broth microdilution method; format: functional, organism-based
# [7] = Hemolytic activity in rabbit RBC assessed as hemolysis rate at 23.5 ug/ml incubated for 1 hr by microplate reader assay; format: toxicity, cell-based, Oryctolagus cuniculus, Erythrocyte; conditions: rabbit red blood cells (erythrocytes), at 23.5 µg/mL, read-out: Activity
# [8] = Cytotoxicity against mouse MLg cells assessed as survival rate at 23.5 ug/ml incubated for 24 hrs by MTS method; format: toxicity, cell-based; conditions: at 23.5 µg/mL, read-out: Survival
# [9] = Clearance in ICR mouse at 5 mg/kg, po; format: ADME, organism-based; conditions: in vivo
# [10] = AUC(0 to infinity) in ICR mouse at 1 mg/kg, iv; format: ADME, organism-based; conditions: in vivo
# [11] = MRT(0 to t) in ICR mouse at 1 mg/kg, iv; format: ADME, organism-based; conditions: in vivo
# [12] = MRT(0 to infinity) in ICR mouse at 1 mg/kg, iv; format: ADME, organism-based; conditions: in vivo
# [13] = Cmax in ICR mouse at 1 mg/kg, iv; format: ADME, organism-based; conditions: in vivo
# [14] = Clearance in ICR mouse at 1 mg/kg, iv; format: ADME, organism-based; conditions: in vivo
# Staphylococcus aureus [15] = experiment: Antibacterial activity against methicillin resistant Staphylococcus aureus ATCC 43300 infected in ICR mouse systemic infection model at 1.25 to 5 mg/kg, ip pretreated with bacteria for 30 mins followed by compound addition and measured for 7 days; format: functional; conditions: dose 1.25-5 mg/kg, time 7 day
# Staphylococcus aureus [16] = experiment: Antibacterial activity against methicillin resistant Staphylococcus aureus ATCC 43300 infected in ICR mouse systemic infection model assessed as reduction in bacterial burden in spleen at 2.5 mg/kg, ip pretreated with bacteria for 30 mins followed by compound addition and measured for 7 days; format: functional, organism-based; conditions: time 7.0 day
# [17] = Acute toxicity in ICR mouse at 2 g/kg, po measured after 7 days; format: organism-based; conditions: in vivo, 2000 mg/kg, time 7 day
# Staphylococcus aureus [18] = experiment: Antibacterial activity against methicillin resistant Staphylococcus aureus ATCC 33592 assessed as increase in cell aggregation at MIC incubated for 1 to 6 hrs by SEM analysis; format: functional, organism-based; conditions: time 1-6 hrs
smiles,measurement,setting,value
C/C(O)=C1\C(=O)[C@@H]2Cc3c([nH]c4ccccc34)[C@@H](c3ccc(-c4cc(F)cc(F)c4)cc3)N2C1=O,MIC,[1],0.125 µg/mL
same,MIC,Staphylococcus aureus [2],0.063 µg/mL
same,MBC,Staphylococcus aureus [3],1 µg/mL
same,inhibition,Staphylococcus aureus [4],Dose-Dependent Effect
same,MIC,[5],2 µg/mL
same,Activity,[6],inactive
same,"hemolysis at 1 h, 23.5 ug/ml",[7],< 5%
same,"viability at 24 h, 23.5 ug/ml",[8],> 80%
same,CL/F,[9],32.5 mL/min/kg
same,AUC(0-inf),[10],4290 ng·h/mL
same,MRT last,[11],10.4 h
same,MRT inf,[12],11.1 h
same,Cmax,[13],748 ng/mL
same,clearance,[14],3.88 mL/min/kg
same,Activity,Staphylococcus aureus [15],>50%
same,Activity,Staphylococcus aureus [16],Active
same,LD50 at 168 h,[17],> 2000 mg/kg
same,Activity,Staphylococcus aureus [18],Active
